From patent US9505798B2, “Steroid compounds as RORyt modulators and uses thereof” (New York University, priority 2010, dated 2016)

Key:
human memory Th17 cells = details: 40 μM, 6 days
Experimental: Mononuclear cells were collected from draining lymph nodes of wild-type or IL-23RGFP knock-in heterozygous mice 7 days after MOG(35-55)/CFA injection.
Blood samples were obtained from the New York Blood Center. Mononuclear cells were prepared from buffy coats from healthy adult donors or from cord blood, using FicollPAQUE gradients. CD4^+ T cells were magnetically selected (autoMACS, Miltenyi). Adult memory CD4^+ T cell subsets were further purified as CD3^+CD4^+CD25^− CD45RO^+CCR6^+CD161^+ by cell sorting on a FACSAria (BD). Naive CD4^+ T cells were isolated from cord blood as CD3^+CD4^+CD45RA^+HLA-DR^−CD25^−DAPI^−. Memory cells were activated with anti-CD3/CD28 coated beads (1 bead/cell) in T cell media (see above) supplemented with 100 U/mL IL-2 (Peprotech), 10 ng/mL IL-1b and 10 ng/mL IL-23 (eBioscience). Naive cells were activated with anti-CD3/CD28 beads and cultured with the same cytokines, and TGF-b (0, 0.1, 1, or, 10 ng/mL) (Peprotech), in XVIVO-20 (Lonza) media. […] Naive CD4^+ T cells, cultured in XVIVO-20 media supplemented 100 U/mL IL-2 (Peprotech), were transduced with RORad-IRES-GFP or RORγt-IRES-GFP on day 1 and analyzed on day 6. […]
Blood samples were obtained from the New York Blood Center. […] Naive CD4+ T cells, cultured in XVIVO-20 media supplemented with 100 U/mL IL-2 (Peprotech), were transduced with RORαd-IRES-GFP or RORγt-IRES-GFP on day 1 and analyzed on day 6. […]

RORα = target: T1, RORα (Mus musculus, UniProt P51448); test: S2 cell RORα luciferase reporter; type: cell-based; details: 10 μM, FIG. 1c
T1 construct: mouse RORα (amino acids 142 to end); expressed in transfected cells
T1 sequence (P51448 142-523 limits assumed): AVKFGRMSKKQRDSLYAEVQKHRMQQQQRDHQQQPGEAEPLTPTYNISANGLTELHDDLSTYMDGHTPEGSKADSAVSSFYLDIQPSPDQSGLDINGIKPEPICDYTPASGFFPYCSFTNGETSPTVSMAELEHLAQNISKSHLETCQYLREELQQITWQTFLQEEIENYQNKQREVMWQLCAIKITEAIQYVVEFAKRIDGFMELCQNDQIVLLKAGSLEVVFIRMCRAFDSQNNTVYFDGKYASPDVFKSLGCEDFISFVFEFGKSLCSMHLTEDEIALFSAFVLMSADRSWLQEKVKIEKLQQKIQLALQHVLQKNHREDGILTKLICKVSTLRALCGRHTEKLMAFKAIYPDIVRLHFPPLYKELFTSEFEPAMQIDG
Excerpt: The Drosophila S2 cell line was originally purchased from Invitrogen and was maintained in Schneider's medium supplemented with 10% heat-inactivated bovine fetal calf serum and antibiotics (Invitrogen). Gal4 DNA binding domain (G4 DBD) corresponding to amino acids 1 through 147 of Gal4 protein was PCR amplified to make a fusion construct with mouse RORγt (amino acids 79 to the carboxyl terminal end) lacking its DNA binding domain. The resulting chimeric gene was subcloned into the copper inducible pMT/V5-His A vector (Invitrogen). In a similar manner, Gal4 fusion constructs were prepared with mouse RORα (amino acids 142 to end) or Drosophila DHR3 (amino acids 120 to end). Coding sequences for firefly luciferase (Promega) were PCR amplified and subcloned into pUAST vector containing Gal4 binding enhancer sequences. Renilla luciferase construct under the polIII promoter was obtained from Dr. Dasgupta's laboratory (NYU medical center). In order to generate stable cell lines, cells were co-transfected with pMT-G4 DBD-RORγt, pMT-G4 DBD-RORα, pMT-G4 DBD-DHR3, or pMT-G4 DBDVP16 and pHygro plasmids (Invitrogen) and screened for resistant colonies in the presence of hygromycin (0.3 mg/mL). […]

[1] = test system: IL-17a production in human CD4+ T cells; test: Human cord blood CD4+ T cells expressing murine ATP1a1, Th17 conditions; type: cell-based; details: murine Na+/K+-ATPase α1 expressed, 10 μM
Experimental: Blood samples were obtained from the New York Blood Center. Mononuclear cells were prepared from buffy coats from healthy adult donors or from cord blood, using FicollPAQUE gradients. CD4^+ T cells were magnetically selected (autoMACS, Miltenyi). Adult memory CD4+ T cell subsets were further purified as CD3^+CD4^+CD25^−CD45RO^+CCR6^+CD161^+ by cell sorting on a FACSAria (BD). Naive CD4^+ T cells were isolated from cord blood as CD3^+CD4^+CD45RA^+HLA^−DR^−CD25^−DAPI^−. Memory cells were activated with anti-CD3/CD28 coated beads (1 bead/cell) in T cell media (see above) supplemented with 100 U/mL IL-2 (Peprotech), 10 ng/mL IL-1β and 10 ng/mL IL-23 (eBioscience). Naive cells were activated with anti-CD3/CD28 beads and cultured with the same cytokines, and TGF-β (0, 0.1, 1, or, 10 ng/mL) (Peprotech), in XVIVO-20 (Lonza) media. […] Naive CD4+ T cells, cultured in XVIVO-20 media supplemented with 100 U/mL IL-2 (Peprotech), were transduced with RORαd-IRES-GFP or RORγt-IRES-GFP on day 1 and analyzed on day 6. GFP expressing cells were gated for analysis. DMSO or compounds were added 6-8 hours after the viral transduction.

| SMILES | IFN-γ-expressing cells (human memory Th17 cells) | reduction of IL-17a-expressing cells (human memory Th17 cells) | effect on transcriptional activity of RORα (RORα) | IL-17a expression [1] |
| --- | --- | --- | --- | --- |
| CC1O[C@@H](OC2C(C)O[C@H](OC3C(C)O[C@@H](O[C@H]4CC[C@@]5(C)[C@H](CC[C@@H]6[C@@H]5C[C@@H](O)[C@]5(C)[C@@H](C(CO)CCO)CC[C@]65O)C4)C[C@H]3O)C[C@H]2O)C[C@@H](O)C1O (stereo partly shown) [Compound 13, 20,22-Dihydrodigoxin-21,23-diol] | little effect | 40-50% |  |  |
| C[C@H]1O[C@@H](O[C@H]2[C@@H](O)C[C@H](O[C@H]3[C@@H](O)C[C@H](O[C@H]4CC[C@@]5(C)[C@H](CC[C@@H]6[C@@H]5C[C@@H](O)[C@]5(C)[C@@H](C7=CC(=O)OC7)CC[C@]65O)C4)O[C@@H]3C)O[C@@H]2C)C[C@H](O)[C@@H]1O [Digoxin] |  |  | no effect | suppressed IL-17a production without affecting IFN-γ expression |
